Measurements: EP0558245A1, “Heterobicyclic compounds as antagogists of alpha-1 adrenergic and SHT1A receptors” (priority 1992, dated 1993)
Structures can show the parent of a compound that is named as a salt. Where two headings read alike, the source gives them in different places.

What was measured:
5HT1A receptors = biological target: T1, 5HT1A receptors (Rattus norvegicus, UniProt P19327); assay: [3H]8-OH-DPAT binding (5HT1A receptors), rat hippocampus membranes; details: rat hippocampus crude membranes, [3H]8-OH-DPAT 1.0 nM, 25°C 30 min; read-out: Receptor Binding IC50 (nM) 5-HT1a
T1 construct: Rat hippocampi were homogenized; from tissue; host or cells: rat hippocampus membranes
T1 sequence (P19327 1-422): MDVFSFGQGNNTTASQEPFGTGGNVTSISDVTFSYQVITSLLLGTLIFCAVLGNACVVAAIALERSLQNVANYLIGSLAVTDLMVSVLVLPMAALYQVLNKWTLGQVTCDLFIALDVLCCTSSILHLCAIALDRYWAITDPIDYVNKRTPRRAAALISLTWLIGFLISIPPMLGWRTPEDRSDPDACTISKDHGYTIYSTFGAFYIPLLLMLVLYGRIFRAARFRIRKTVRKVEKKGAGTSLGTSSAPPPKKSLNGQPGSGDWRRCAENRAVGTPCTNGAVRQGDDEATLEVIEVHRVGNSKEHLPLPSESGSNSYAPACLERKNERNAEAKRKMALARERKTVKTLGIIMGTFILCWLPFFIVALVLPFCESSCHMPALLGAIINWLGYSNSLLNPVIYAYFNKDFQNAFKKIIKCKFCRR

[1] = Acute toxicity in mice after intraperitoneal and oral administration; details: mouse, in vivo, female albino Swiss mice, mortality recorded 7 days after administration
Procedure: Male Sprague Dawley rats [Crl: CD' BR] of 200-300 g b.w., female Albino Swiss mice [Crl: CD-1 (ICR) BR] 20-30 g b.w., and male Beagle dogs (10-12 kg b.w.) were obtained from Charles River, Italy and Nossan (Correzzana, Milan, Italy), respectively. Animals were housed with free access to food and water and maintained on forced light-dark cycle at 22-24°C until the day of experiments.
The acute toxicity of synthesized compounds was evaluated in female albino Swiss mice after intraperitoneal and oral administration. Four logarithmic scaled doses of the compounds were dissolved or suspended in 0.5% Methocel and administered in a volume of 10 ml/kg to groups of 4 mice/dose. Mortality was recorded 7 days after the administration. Data analysis: the LD₅₀ values and their fiducial limits were calculated according to the method of Weil (Biometrics, 8, 249, 1952).

α₁ receptors = assay: [3H]prazosin binding (α1 receptors), rat cerebral cortex membranes; details: rat cerebral cortex crude membranes, [3H]prazosin 0.35 nM, 25°C 30 min; read-out: Receptor Binding IC50 (nM) α1
Procedure: Rat cerebral cortices were homogenized in 50 volumes of original wet weight of ice-cold 50 mM Tris-HCl buffer pH 7.4. The homogenates were centrifuged at 48,000 x g for 10 minutes, and the pellets were resuspended in the same volume of ice-cold buffer, centrifuged and resuspended two more times. The final pellets obtained were resuspended in the same volume of buffer and incubated according to the conditions reported in the table below.
The incubations were terminated after the appropriate time (see table) by rapid filtration through Whatman GF/B filters using a Brandel cell harvester. The filters were washed twice with 15 ml of ice-cold buffer (see table). The radioactivity retained on the filters was determined by liquid scintillation counting. Nonspecific binding (which amounted generally to 10-30%) was evaluated by adding high concentrations of the specific displacers (see table). All the compounds were initially tested at 1x10⁻⁶ M concentration, and in the presence of significant displacing activity, a complete competition curve was generated (down to a concentration of 10⁻¹¹ M). All the samples were run in triplicate.

[2] = ip, intraperitoneal, read-out: Acute Toxicity in Mice LD50 (mg/kg) i.p.
[3] = oral, read-out: Acute Toxicity in Mice LD50 (mg/kg) p.o.

| Structure (SMILES) | IC50 (5HT1A receptors) | LD50 at 168 h [1, 2] | LD50 at 168 h [1, 3] | IC50 (α₁ receptors) |
| --- | --- | --- | --- | --- |
| Cc1c(-c2ccccc2)oc2c(C(=O)NCCCN3CCC(n4c(=O)[nH]c5ccccc54)CC3)cccc2c1=O [Example 57, 8-{3-[4-(2-oxo-1-benzimidazolinyl)-1-piperidinyl]-propylcarbamoyl-}-3-methyl-4-oxo-2-phenyl-4H-1-benzopyran] | > 1000 nM | 500 mg/kg | > 2000 mg/kg | 69 nM |
| Cc1c(-c2ccccc2)oc2c(C(=O)NCCCN3CCC(C(=O)c4ccc(F)cc4)CC3)cccc2c1=O [Example 56, 8-{3-[4-(4-fluorobenzoyl)-1-piperidinyl]-propyl-carbamoyl}-3-methyl-4-oxo-2-phenyl-4H-1-benzopyran] | 748 nM | > 500 mg/kg |  | 25 nM |
| CCOc1ccccc1OCCNCCOCc1cccc2c(=O)c(C)c(-c3ccccc3)oc12.Cl [Example 28, 8-{2-[2-(2-ethoxyphenoxy)-ethylamino]-ethoxymethyl}-3-methyl-4-oxo-2-phenyl-4H-1-benzopyran hydrochloride] | 96 nM | 203 mg/kg | 1130 mg/kg | 120 nM |
| COc1ccccc1N1CCN(CCNS(=O)(=O)c2cccc3c(=O)c(C)c(-c4ccccc4)oc23)CC1.Cl [Example 48, 8-{2-[4-(2-methoxyphenyl)-1-piperazinyl]-ethylsulphamoyl}-3-methyl-4-oxo-2-phenyl-4H-1-benzopyran hydrochloride] | 5 nM | 500 mg/kg | 1910 mg/kg | 104 nM |
| Cc1c(-c2ccccc2)oc2c(C(=O)NCCCNCC3COc4ccccc4O3)cccc2c1=O (stereo not drawn) [Example 52, 8-{3-[2-(1,4-benzodioxanyl)methylamino]propylcarbamoyl}-3-methyl-4-oxo-2-phenyl-4H-1-benzopyran methansulphonate] | 2 nM | 127 mg/kg | 224 mg/kg | 89 nM |
| Cc1c(-c2ccccc2)oc2c(C(=O)OCCCN3CCN(c4ccccc4)CC3)cccc2c1=O.Cl.Cl [Example 8, 8-[3-(4-phenyl-1-piperazinyl)-propoxycarbonyl]-3-methyl-4-oxo-2-phenyl-4H-1-benzopyran dihydrochloride] | 111 nM | > 500 mg/kg | 1920 mg/kg | 66 nM |
| COc1ccccc1N1CCN(CCCCNS(=O)(=O)c2cccc3c(=O)c(C)c(-c4ccccc4)oc23)CC1.CS(=O)(=O)O.CS(=O)(=O)O [Example 67, 8-{4-[4-(2-methoxyphenyl)-1-piperazinyl]-butylsulphamoyl}-3-methyl-4-oxo-2-phenyl-4H-1-benzopyran dimethanesulphonate] | 4 nM | 508 mg/kg | 1870 mg/kg | 4 nM |
| COc1ccccc1OCCN(C)CCCNC(=O)c1cccc2c(=O)c(C)c(-c3ccccc3)oc12.Cl [Example 62, 8-{3-[N-methyl-2-(2-methoxyphenoxy)-ethylamino]-propylcarbamoyl}-3-methyl-4-oxo-2-phenyl-4H-1-benzopyran hydrochloride] | 278 nM | 128 mg/kg | 344 mg/kg | 252 nM |
| COc1ccccc1N1CCN(CCN(Cc2cccc3c(=O)c(C)c(-c4ccccc4)oc23)C(C)=O)CC1.Cl [Example 24, 8-{N-acetyl-2-[4-(2-methoxyphenyl)-1-piperazinyl]-ethylaminomethyl}-3-methyl-4-oxo-2-phenyl-4H-1-benzopyran hydrochloride] | 212 nM | > 1000 mg/kg | > 3000 mg/kg | 690 nM |
| COc1ccccc1N1CCN(CCOc2cccc3c(=O)c(C)c(-c4ccccc4)oc23)CC1.Cl.O [Example 39, 8-{2-[4-(2-methoxyphenyl)-1-piperazinyl]-ethoxy}-3-methyl-4-oxo-2-phenyl-4H-1-benzopyran hydrochloride hydrate] | 170 nM | > 1000 mg/kg | > 3000 mg/kg | 90 nM |
| COc1ccccc1N1CCN(CCC(=O)c2cccc3c(=O)c(C)c(-c4ccccc4)oc23)CC1.Cl [Example 4, 8-{3-[4-(2-methoxyphenyl)-1-piperazinyl]-1-oxopropyl}-3-methyl-4-oxo-2-phenyl-4H-1-benzopyran hydrochloride] | 55 nM | 346 mg/kg | 1730 mg/kg | 550 nM |
| COc1ccccc1N1CCN(CCN(C)S(=O)(=O)c2cccc3c(=O)c(C)c(-c4ccccc4)oc23)CC1.Cl [Example 49, 8-{N-methyl-2-[4-(2-methoxyphenyl)-1-piperazinyl]-ethylsulphamoyl}-3-methyl-4-oxo-2-phenyl-4H-1-benzopyran hydrochloride] | 9 nM | 432 mg/kg | > 2000 mg/kg | 152 nM |
| COc1ccccc1N1CCN(CCCC(=O)Nc2cccc3c(=O)c(C)c(-c4ccccc4)oc23)CC1 [Example 69, 8-{4-[4-(2-methoxyphenyl)-1-piperazinyl]-butyramido}-3-methyl-4-oxo-2-phenyl-4H-1-benzopyran methanesulphonate hemihydrate] | 87 nM | 344 mg/kg |  | 16 nM |
| Cc1c(-c2ccccc2)oc2c(C(=O)NCCCN3CCN(c4ccccc4O)CC3)cccc2c1=O [Example 59, 8-{3-[4-(2-hydroxyphenyl)-1-piperazinyl]-propylcarbamoyl}-3-methyl-4-oxo-2-phenyl-4H-1-benzopyran] | 9 nM | > 500 mg/kg | 278 mg/kg | 5 nM |
| COc1ccccc1N1CCN(CCC(=O)N(C)c2cccc3c(=O)c(C)c(-c4ccccc4)oc23)CC1.CS(=O)(=O)O [Example 63, 8-{N-methyl-3-[4-(2-methoxyphenyl)-1-piperazinyl]-propionamido}-3-methyl-4-oxo-2-phenyl-4H-1-benzopyran methanesulphonate] | 99 nM | 309 mg/kg | 479 mg/kg | 194 nM |
| COc1ccccc1N1CCN(CCCN(C)c2cccc3c(=O)c(C)c(-c4ccccc4)oc23)CC1 [Example 35, 8-{N-methyl-3-[4-(2-methoxyphenyl)-1-piperazinyl]-propylamino}-3-methyl-4-oxo-2-phenyl-4H-1-benzopyran hydrochloride hemihydrate] | 8 nM | 329 mg/kg | 959 mg/kg | 15 nM |
| CCOC(CN1CCN(c2ccccc2OC)CC1)c1cccc2c(=O)c(C)c(-c3ccccc3)oc12.Cl (stereo not drawn) [Example 22, 8-{1-ethoxy-2-[4-(2-methoxyphenyl)-1-piperazinyl]-ethyl}-3-methyl-4-oxo-2-phenyl-4H-1-benzopyran hydrochloride] | 48 nM | > 500 mg/kg | > 2000 mg/kg | 117 nM |
| Cc1c(-c2ccccc2)oc2c(C(=O)NCCCN3CCN(c4ccccc4)CC3)cccc2c1=O [Example 15, 8-[3-(4-phenyl-1-piperazinyl)-propylcarbamoyl]-3-methyl-4-oxo-2-phenyl-4H-1-benzopyran monohydrochloride hemihydrate] | 131 nM | 306 mg/kg | 496 mg/kg | 8 nM |
| COc1ccccc1N1CCN(CCOC(=O)c2cccc3c(=O)c(C)c(-c4ccccc4)oc23)CC1.Cl.Cl [Example 6, 8-{2-[4-(2-methoxyphenyl)-1-piperazinyl]-ethoxycarbonyl}-3-methyl-4-oxo-2-phenyl-4H-1-benzopyran dihydrochloride] | 1000 nM | 233 mg/kg |  | 107 nM |
| COc1ccccc1N1CCN(CCCN(C(N)=O)c2cccc3c(=O)c(C)c(-c4ccccc4)oc23)CC1 [Example 50, 8-{N-carbamoyl-3-[4-(2-methoxyphenyl)-1-piperazinyl]-propylamino}-3-methyl-4-oxo-2-phenyl-4H-1-benzopyran methanesulphonate hemihydrate] | 300 nM | 211 mg/kg | 299 mg/kg | 39 nM |
| COc1ccccc1N1CCN(CCCNC(=O)c2cccc3c2OCCC3=O)CC1.CS(=O)(=O)O [Example 87, 8-{3-[4-(2-methoxyphenyl)-1-piperazinyl]-propylcarbamoyl}-2,3-dihydro-4-oxo-4H-1-benzopyran methanesulphonate] | 107 nM | 237 mg/kg | > 500 mg/kg | 119 nM |
